Measured values: patent US4680382A, “Analogues of actinomycin D” (priority 1986, dated 1987)

What was measured:
[1] = biological target: T1, NADPH cytochrome P-450 reductase (rat liver microsomes) (Rattus norvegicus, UniProt P00388); assay: Stimulation of NADPH oxidation in rat hepatic microsomal incubations; conditions: for NADPH oxid: 340 nm, 37° C., phenobarbital induced microsomes, mean ± standard error of triplicate, basal 9.11 ± 0.30; for percentage stimulation of NADPH oxidation over basal rate: (drug-stimulated rate - basal rate)/basal rate × 100
T1 sequence (P00388 1-678): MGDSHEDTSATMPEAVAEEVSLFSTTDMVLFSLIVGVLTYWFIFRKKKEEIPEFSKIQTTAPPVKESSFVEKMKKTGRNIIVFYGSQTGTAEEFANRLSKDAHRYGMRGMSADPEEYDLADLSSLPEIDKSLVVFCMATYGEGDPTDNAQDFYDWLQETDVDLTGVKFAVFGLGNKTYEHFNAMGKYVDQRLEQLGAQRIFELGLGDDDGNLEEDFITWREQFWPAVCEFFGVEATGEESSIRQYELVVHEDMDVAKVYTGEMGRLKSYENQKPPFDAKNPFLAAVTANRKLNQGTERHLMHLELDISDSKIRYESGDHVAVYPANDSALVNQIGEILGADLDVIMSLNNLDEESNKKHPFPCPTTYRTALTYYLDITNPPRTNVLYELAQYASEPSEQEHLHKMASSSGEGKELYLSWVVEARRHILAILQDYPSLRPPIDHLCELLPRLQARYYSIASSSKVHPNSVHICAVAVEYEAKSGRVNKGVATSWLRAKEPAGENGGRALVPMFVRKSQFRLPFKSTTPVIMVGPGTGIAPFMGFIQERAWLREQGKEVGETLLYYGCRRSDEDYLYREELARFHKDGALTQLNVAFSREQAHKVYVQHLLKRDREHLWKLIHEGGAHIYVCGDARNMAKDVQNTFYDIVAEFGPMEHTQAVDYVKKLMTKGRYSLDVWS

[2] = tested on: rat hepatic microsomes; assay: Stimulation of adrenochrome formation (superoxide generation) in rat hepatic microsomal incubations; conditions: no SOD; for adrenochrome formation: 480 nm, 37° C., no more than 100 μM drug, basal 2.11 ± 0.11
[3] = tested on: liver microsomes; assay: EPR detection of free-radical intermediates with liver microsomes and NADPH (anaerobic); assay type: biochemical; conditions: NADPH, potassium phosphate buffer
Procedure: No free-radical intermediates were detected in the absence of enzyme or substrates.
Melting points are determined on a Thomas-Hoover melting point apparatus at a heating rate of 2° C./min. Thin-layer chromatography was performed on silica gel plates (Brinkmann Instrument Inc.). Solvent systems were (A) EtOAc-acetone (4:1), (B) CHCl3 -MeOH (9:1) and (C) Cifferri, the organic phase of the mixture EtOAc-MeOH-H2 O (20:1:20). High-performance liquid chromatography was carried out on a Varian Model 5020 gradient liquid chromatograph equipped with a CD-111L chromatography data system and fitted with a Varian reversed-phase C18 column with the following solvent systems: I, CH3 CN-5 mM NH4 OAc buffer, pH 6.4 (68:32 isocratic), flow rate 1.5 mL/min; II, 65-95% water-methanol gradient for 70 min, 1 mL/min; III, 10-90% H2 O-MeOH gradient for 120 min, 1 mL/min, with UV-visible variable- and fixed-wavelength dual detectors at 254, 440, 470 and 520 nm. IR spectra were obtained on a Perkin-Elmer Model 237 Infra Cord with KBr micropellets or in chloroform solutions. UV-visible spectra were obtained on a Gilford 250 spectrophorometer, which, with the addition of a base-line reference compensator (Analog Multiplexer 5053) and thermoprogrammer, auto four cell programmer and thermoelectric cell holder 2577, were used to obtain thermal denaturation curves. Specific rotation values were determined in chloroform solutions with a Cary 60 spectropolarimeter. NMR spectra were obtained in a JEOL FQ-90 MHz spectrometer equipped with Fourier transform. EPR spectra analyses were recorded in a Varian E-9 EPR spectrometer. All elemental analyses were within ±0.4%.

[4] = tested on: P388/S; assay: In vivo activity against P388/S (adriamycin sensitive) leukemia, Table VII; design: species or system BDF1 mice; conditions: for P388/S % ILS / P388/S tumor-free survivors/total on day 60: at optimal dose; for P388/S optimal dose: ip, days 1, 5 and 9
Procedure: (§1) ^a Male BDF1 mice inoculated ip: 10^6 cells inoculum, day 0.
(§2) Drugs administered in 10% dimethyl sulfoxidesaline on days 1, 5 and 9. %
(§3) ILS = percent increase in life span. Fractions in parentheses = tumorfree
(§4) survivors/total on day 60. P388/S (adriamycin sensitive) and P388/ADR
(§5) (adriamycin resistant) tumors were evaluated in the same experiment with […]

[5] = tested on: P388/ADR; assay: In vivo activity against P388/adriamycin-resistant leukemia; design: species or system BDF1 mice; conditions: for P388/ADR optimal dose: ip, days 1, 5 and 9
Procedure: as §1, §2, §3, §4, §5

Structure (SMILES) | NADPH oxid [1] | percentage stimulation of NADPH oxidation over basal rate [1] [%] | adrenochrome formation [2] | percentage stimulation of adrenochrome formation over basal rate [2] | free-radical intermediate detected by EPR [3] | P388/S % ILS [4] [%] | P388/S tumor-free survivors/total on day 60 [4] | P388/S optimal dose [4] [mg/kg] | P388/ADR % ILS ([5]; at optimal dose) [%] | P388/ADR optimal dose [5] [mg/kg] | P388/ADR tumor-free survivors/total on day 60 ([5]; at optimal dose)
CCN(CC)C(=O)c1c2nc3c(C(=O)N(CC)CC)c4nc(C)oc4c(C)c3oc-2c(C)c(=O)c1N [7b] | 8.9 ± 0.90 nmol min^-1 (mg of protein)^-1 | -2 | 2.13 ± 0.19 nmol min^-1 (mg of protein)^-1 | +1% | no free-radical intermediates were detectable |  |  |  |  |  | 
CCN(CC)C(=O)c1cc(=O)c(C)c2oc3c(C)c4oc(C)nc4c(C(=O)N(CC)CC)c3nc1-2 [9b] | 8.9 ± 0.90 nmol min^-1 (mg of protein)^-1 | -2 | 2.13 ± 0.19 nmol min^-1 (mg of protein)^-1 | +1% |  |  |  |  |  |  | 
COc1cccc2c1C(=O)c1c(O)c3c(c(O)c1C2=O)C[C@@](O)(C(=O)CO)C[C@@H]3O[C@H]1C[C@H](N)[C@H](O)[C@H](C)O1 [adriamycin, reference compound] |  |  |  |  |  | 97 | 1/8 | 3.0 | 33 | 3.5 | 
CO[C@@]12[C@H](COC(N)=O)C3=C(C(=O)C(C)=C(N)C3=O)N1C[C@@H]1N[C@@H]12 [mitomycin C, reference compound] |  |  |  |  |  | 136 | 1/8 | 3.0 | 400 | 3.0 | 5/8
